In paper PMC3418602 (2009):

Columns and labels:
Assay in all cases: TR-FRET peptide phosphorylation kinase assay
Assay type in all cases: biochemical
[1] = biological target: JAK2 (Homo sapiens, UniProt O60674)
[2] = biological target: JAK3 (Homo sapiens, UniProt P52333)
[3] = biological target: JAK1 (Homo sapiens, UniProt P23458)
Chain of JAK1 (P23458 850-1154 limits assumed): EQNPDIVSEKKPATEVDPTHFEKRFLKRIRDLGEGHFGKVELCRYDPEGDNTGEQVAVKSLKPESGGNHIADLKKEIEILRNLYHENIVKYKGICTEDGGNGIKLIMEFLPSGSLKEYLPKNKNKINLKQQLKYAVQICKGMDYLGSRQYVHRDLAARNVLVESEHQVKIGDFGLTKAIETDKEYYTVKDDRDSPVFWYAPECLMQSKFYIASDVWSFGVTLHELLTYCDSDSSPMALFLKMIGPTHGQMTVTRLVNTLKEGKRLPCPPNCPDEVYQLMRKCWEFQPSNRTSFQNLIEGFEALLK

Chain of JAK3 (P52333 781-1124 limits assumed): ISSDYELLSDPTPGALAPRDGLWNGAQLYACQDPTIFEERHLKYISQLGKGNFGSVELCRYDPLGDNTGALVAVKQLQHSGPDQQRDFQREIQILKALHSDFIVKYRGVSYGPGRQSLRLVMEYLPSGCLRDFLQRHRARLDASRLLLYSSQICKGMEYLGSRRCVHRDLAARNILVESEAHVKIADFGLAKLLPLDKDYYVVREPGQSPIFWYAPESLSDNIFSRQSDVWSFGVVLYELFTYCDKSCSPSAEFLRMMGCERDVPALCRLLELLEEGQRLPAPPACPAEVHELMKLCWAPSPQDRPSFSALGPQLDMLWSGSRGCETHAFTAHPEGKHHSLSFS
Chain of JAK2 (O60674 840-1132 limits assumed): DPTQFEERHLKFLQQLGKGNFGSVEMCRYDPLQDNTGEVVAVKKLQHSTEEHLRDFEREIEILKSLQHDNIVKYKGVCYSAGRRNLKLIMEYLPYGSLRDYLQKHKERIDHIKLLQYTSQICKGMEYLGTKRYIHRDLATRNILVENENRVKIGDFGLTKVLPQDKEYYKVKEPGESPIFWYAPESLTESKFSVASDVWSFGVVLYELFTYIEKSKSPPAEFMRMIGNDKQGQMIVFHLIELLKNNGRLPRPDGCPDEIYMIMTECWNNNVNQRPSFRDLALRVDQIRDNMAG

Structure (SMILES): N#C/C(=C\c1ccc(O)c(O)c1)C(=O)NCc1ccccc1 [AG490]
- IC50 [1]: 11.2 µM
- IC50 [2]: 15.4 µM
- IC50 [3]: 10.2 µM
